# Results: a melting point compilation (Tetko et al.)
row,Structure (SMILES),melting point [°C]
1,COc1ccc(CCN2CCC(Nc3nc4ccccc4n3Cc3ccc(F)cc3)CC2)cc1,149
2,CCCOC(=O)CCCCC(=O)OCCC,-15.7
3,CC(=O)Oc1ccc(C(C)(C)c2ccc(OC(C)=O)cc2)cc1,86 to 91
4,N#CC1CC2CCC1C2 (stereo not given),44
5,C#CCOc1cc(-n2nc(C(C)(C)C)oc2=O)c(Cl)cc1Cl,131
6,CN(C)c1ccc(C=O)c(F)c1C#N,125 to 127
7,BrC/C=C/CBr,53.4
8,COc1ccc(CBr)cc1C(F)(F)F,77
9,CCCCC(CC)CNCC(CC)CCCC (stereo not given),-60
10,O=C(C1CCNCC1)N1CCCCCC1,41 to 47
11,C=Cc1c2ccccc2cc2ccccc12,64 to 66
12,CCOP(=O)(N=C1SCCS1)OCC,41
13,CCOc1cc(C(=S)N2CCCCC2)ccc1O,123
14,CCN(CC)C(=O)CC(C)=O,-73
15,CC1=C(C)S(=O)(=O)CCS1(=O)=O,168
16,O=C(O)CC1NC(=O)NC1=O (stereo not given),213 to 216
17,O=C(O)C(F)(F)C(F)(F)C(F)(F)C(F)(F)C(F)(F)C(F)(F)C(F)(F)C(F)(F)F,65
18,CC(C)(C)C(=O)CC(=O)C(F)(F)C(F)(F)C(F)(F)F,38
19,CC(C)(C)N(CCO)CCO,42
20,CC(C)C1C(=O)NC(=O)NC1=O,214
21,Cc1nc(Cl)c(C#N)c(C)c1Cl,82 to 83

# The next lines start with the values.
row,melting point [°C],Structure (SMILES)
1,151 to 153,CSC(S)=Nc1ccccc1C
2,111 to 112,COc1cc(CC(=O)O)c([N+](=O)[O-])cc1OC
3,127 to 128,O=C(Cl)c1cc2ccccc2n1S(=O)(=O)c1ccccc1
4,79,Cc1ccc(Br)cc1O
5,178 to 179,O=[N+]([O-])c1ccc(/C=C/c2ccc3c(c2)OCO3)c([N+](=O)[O-])c1
6,165,O=c1ccc2cc(Cl)ccc2o1
7,147,O=C(O)Cc1ccc(O)c([N+](=O)[O-])c1
8,175,Cc1c(NC=C2C(=O)NN=C2c2c(O)c3ccccc3n(C)c2=O)c(=O)n(-c2ccccc2)n1C
9,100,COC(=O)c1ccc(N(C)C)cc1
10,49 to 51,O=C(Cl)c1ccc2c(c1)CCO2
11,60 to 61,O=[N+]([O-])c1ccc(SCCO)cc1
12,109,Cc1cc(N=Nc2ccccc2)ccc1N=Nc1ccccc1
13,66 to 68,Cc1noc(-c2ccccc2C=O)n1
14,119,O=C1OC(C(Cl)(Cl)Cl)Cc2ccccc21 (stereo not given)
15,279,CC(=O)n1c(C)cc2cc3c(cc21)=NC(C)C=3 (stereo not given)
16,67.5,CCC1=CN(S(=O)(=O)c2ccc(C)cc2)C[C@@H]1CCc1cccc(C(=O)OC)c1
17,12,Cc1cc(C)c2cc(C)ccc2c1
18,138 to 140,Cc1ccc(S(=O)(=O)n2cc(C=O)c3ccccc32)cc1
19,75,FC(F)(F)c1ccccc1CCc1ccccc1C(F)(F)F
20,46 to 48,CC(C)(C)c1ccc(-c2noc(CCl)n2)cc1
21,150,CCOC(=O)c1[nH]c(C)c(S(=O)(=O)Cl)c1C
22,64,CCNS(=O)(=O)c1ccc(C)cc1
23,88.6,COc1c(C(C)(C)C(C)C)c2nc3ccccc3nc2c2ccccc12
24,55,CCO[Si](CCCNC(=O)c1ccc([N+](=O)[O-])cc1)(OCC)OCC
25,133,O=C(c1ccc([N+](=O)[O-])cc1)c1noc(-c2ccc([N+](=O)[O-])cc2)c1S(=O)(=O)c1ccccc1
26,157 to 158,O=C(O)c1cccc(-c2ccco2)c1
27,163,NS(=O)(=O)c1ccc(SCCCO)c([N+](=O)[O-])c1
28,85,Oc1ccccc1CCc1ccccc1
29,182,N=C(N)c1ccc(N)cc1
